Assay results reported in patent publication US10711008B2, “Indoline analogs and uses thereof” (Oncternal Therapeutics, Inc., priority 2016, dated 2020).

Experiments:
Type in all cases: cell-based, human
Details in all cases: 3 days with compound at 0.02 to 5 μM, CCK-8, A450, 50% inhibition of cell viability
[1] = test system: SKES (type 2, 7/5) cells (Ewing Sarcoma cell line); test: Cell growth inhibition, modified tetrazolium salt assay (CCK-8 kit), SKES cells
Procedure: (§1) A modified tetrazolium salt assay using the CCK-8 kit (Sigma-Aldrich; St Louis, Mo.) was used to measure the inhibition of human tumor cell growth. Tumor cells (5000-7500 per well) were added to 96 well plates and allowed to attach for 4-5 hours. Compounds were serially diluted and added in triplicate at a concentration of 0.02 to 5 μM. DMSO was included as a vehicle control. Cells were incubated in the presence of compound for 3 days. After incubation CCK-8 reagent was added to each well and incubated for 2-4 hours. Viable cells were quantitated spectrophotometrically at a wavelength of 450 nm. Percent viability of each sample was calculated from the A450 values as follows: % viability=(A450 nm sample/A450 nm DMSO-treated cells×100). The IC50 was defined as the concentration that gave rise to 50% inhibition of cell viability. IC50 activities of particular compounds were determined using SKES (type 2, 7/5) cells (Ewing Sarcoma cell line), TC71 (Type 1, 7/6) cells (Ewing Sarcoma cell line), and A4573 (Type 3, 10/6) cells (Ewing Sarcoma cell line). […] TK-216 is a YK-4-279 clinical derivative that is in phase 1 for patients with relapsed or refractory Ewing sarcoma. Preclinical testing has been conducted for TK-216 in lymphoma models. Test results for the analogs were compared to those for TK-216 and YK-4-279.

[2] = test system: A4573 (Type 3, 10/6) cells (Ewing Sarcoma cell line); test: Cell growth inhibition, modified tetrazolium salt assay (CCK-8 kit), A4573 cells
Procedure: as §1

[3] = test system: TC71 (Type 1, 7/6) cells (Ewing Sarcoma cell line); test: Cell growth inhibition, modified tetrazolium salt assay (CCK-8 kit), TC71 cells
Procedure: as §1

SMILES | IC50 ([1]; Homo sapiens, 72 h) | IC50 ([2]; Homo sapiens, 72 h) | IC50 ([3]; Homo sapiens, TC-71, 72 h) | IC50 [1] | IC50 [2] | IC50 [3]
CN(C)c1ccc(-c2cc3c(nn2)[nH]c2c(Cl)ccc(Cl)c23)cc1 [TK Analog 14] | > 5 µM | > 5 µM | > 5 µM |  |  | 
NC1(c2ccc(C(=O)CC3(O)C(=O)Nc4c(Cl)ccc(Cl)c43)cc2)CC1 (stereo not drawn) [TK Analog 3] | < 5 µM | > 5 µM | > 5 µM |  |  | 
COc1ccc2c(CC3(O)C(=O)Nc4c(Cl)ccc(Cl)c43)noc2c1 (stereo not drawn) [TK Analog 17] | > 5 µM | > 5 µM | > 5 µM |  |  | 
COc1ccc(C(=O)CC2C(=O)Nc3c(Cl)ccc(Cl)c32)cc1 (stereo not drawn) [TK Analog 6] | < 5 µM | < 5 µM | < 5 µM |  |  | 
O=C(CC1(O)C(=O)Nc2c(Cl)ccc(Cl)c21)c1ccc2occc2c1 (stereo not drawn) [TK Analog 9] | < 5 µM | > 5 µM | > 5 µM |  |  | 
COc1ccc(C(=O)CC2(O)C(=O)Nc3c(Cl)ccc(Cl)c32)cc1 (stereo not drawn) [YK-4-279, 4,7-dichloro-3-hydroxy-3-(2-(4-methoxyphenyl)-2-oxoethyl)indolin-2-one, reference compound] | < 5 µM | < 5 µM | < 5 µM |  |  | 
O=C(CC1(O)C(=O)Nc2c(Cl)ccc(Cl)c21)c1cc(C2CC2)cs1 (stereo not drawn) [TK Analog 23] | > 5 µM | > 5 µM | > 5 µM |  |  | 
COc1ccc(C(=O)CC2(O)C(=O)Nc3c(Cl)ccc(Cl)c32)c(F)c1 (stereo not drawn) [TK Analog 15A] | < 5 µM | < 5 µM | < 5 µM |  |  | 
C#Cc1ccc(C(=O)CC2(O)C(=O)Nc3c(Cl)ccc(Cl)c32)cc1 (stereo not drawn) [TK Analog 5] | > 5 µM | > 5 µM | > 5 µM |  |  | 
O=C(CC1(O)C(=O)Nc2c(Cl)ccc(Cl)c21)c1csc(C2CC2)c1 (stereo not drawn) [TK Analog 24] | > 5 µM | > 5 µM | > 5 µM |  |  | 
O=C(CC1(O)C(=O)Nc2c(Cl)ccc(Cl)c21)c1ccc(C2CC2)s1 (stereo not drawn) [TK Analog 22] | < 5 µM | > 5 µM | > 5 µM |  |  | 
COc1ccc2c(CC3(O)C(=O)Nc4c(Cl)ccc(Cl)c43)nsc2c1 (stereo not drawn) [TK Analog 18] | < 5 µM | > 5 µM | > 5 µM |  |  | 
COc1ccc2c(cnn2CC2(O)C(=O)Nc3c(Cl)ccc(Cl)c32)c1 (stereo not drawn) [TK Analog 16] | < 5 µM | > 5 µM | > 5 µM |  |  | 
O=C(CC1(O)C(=O)Nc2c(Cl)ccc(Cl)c21)c1ccc(C2CC2)nc1 (stereo not drawn) [TK Analog 20] | > 5 µM | > 5 µM | > 5 µM |  |  | 
COc1ccc(C(=O)CC2(F)C(=O)Nc3c(Cl)ccc(Cl)c32)cc1 (stereo not drawn) [TK Analog 7] | < 5 µM | < 5 µM | < 5 µM |  |  | 
O=C(CC1(O)C(=O)Nc2c(Cl)ccc(Cl)c21)c1ccc2[nH]ccc2c1 (stereo not drawn) [TK Analog 11] | < 5 µM | < 5 µM | < 5 µM |  |  | 
CNC(=O)Oc1ccc(C(=O)CC2(O)C(=O)Nc3c(Cl)ccc(Cl)c32)cc1 (stereo not drawn) [TK Analog 13] | > 5 µM | > 5 µM | > 5 µM |  |  | 
O=C(CC1(O)C(=O)Nc2c(Cl)ccc(Cl)c21)c1ccc(OC(F)F)cc1 (stereo not drawn) [TK Analog 4] | > 5 µM | > 5 µM | > 5 µM |  |  | 
O=C(CC1(O)C(=O)Nc2c(Cl)ccc(Cl)c21)c1ccc2sccc2c1 (stereo not drawn) [TK Analog 10] | < 5 µM | < 5 µM | < 5 µM |  |  | 
O=C(CC1(O)C(=O)Nc2c(Cl)ccc(Cl)c21)c1ccc(C2CC2)cc1 (stereo not drawn) [TK-216-2, reference compound] |  |  |  | < 5 µM | < 5 µM | < 5 µM
O=C(CC1(O)C(=O)Nc2c(Cl)ccc(Cl)c21)c1ccc(C2CC2)cn1 (stereo not drawn) [TK Analog 21] | > 5 µM | > 5 µM | > 5 µM |  |  | 
COc1ccc(C(=O)CC2(N)C(=O)Nc3c(Cl)ccc(Cl)c32)cc1 (stereo not drawn) [TK Analog 8] | < 5 µM | > 5 µM | > 5 µM |  |  | 
O=C(CC1(O)C(=O)Nc2c(Cl)ccc(Cl)c21)c1ccc(C2(F)CC2)cc1 (stereo not drawn) [TK Analog 2] | < 5 µM | < 5 µM | < 5 µM |  |  | 
COc1ccc2nn(CC3(O)C(=O)Nc4c(Cl)ccc(Cl)c43)cc2c1 (stereo not drawn) [TK Analog 16A] | > 5 µM | > 5 µM | > 5 µM |  |  | 
O=C(CC1(O)C(=O)Nc2c(Cl)ccc(Cl)c21)c1ccc2ccccc2c1 (stereo not drawn) [TK Analog 19] | < 5 µM | < 5 µM | < 5 µM |  |  | 
